Source: patent US8003615B2, “Stable vitamin B6 derivative” (Daiichi Fine Chemical Co., Ltd., priority 2003, dated 2011)

Assays:
[1] = assay type: physicochemical; settings: 0.5% (w/v) aqueous solution, D65 fluorescent lamp 13,000 Lx
Protocol: A 0.5% (w/v) aqueous solution of pyridoxine 3-β-D-glucoside (pH 6.7) in a volume of 0.3 ml was enclosed in a 1-ml volume glass ampoule, and irradiated with a D65 fluorescent lamp (Toshiba) for 14 days. The irradiation was performed at room temperature with an illumination of 13,000 Lx. Samples before the irradiation and after 1 day, 7 days and 14 days of the irradiation were analyzed by HPLC to measure a pyridoxine 3-β-D-glucoside content. A solution of pyridoxine hydrochloride of the same concentration (adjusted to pH 6.7) was treated in the same manner, and the results were compared. The HPLC measurement conditions were as follows.
Column: Inertsil ODS-3 ([…], ([…], φ4.6×150 mm, GL Science Inc.)
Eluent acetonitrile:0.1% (v/v) trifluoroacetic acid, 5 mM sodium 1-hexanesulfonate=1:9
Column temperature: 40° C.
Aqueous solutions (0.5% (w/v)) of pyridoxine 3-β-D-glucoside hydrochloride, pyridoxal 3-β-D-glucoside, pyridoxamine 3-β-D-glucoside, pyridoxine 3-β-D-galactoside, and pyridoxine hydrochloride (adjusted to pH 6.3 to 7.2 with HCl or NaOH) were each sealed in a volume of 0.3 ml in a 1-ml volume glass ampoule, and light irradiation and HPLC quantification were performed in the same manner as in Test Example 1. […] Test Example 4 (thermal stability of pyridoxine 3-β-D-glucoside hydrochloride and various 3-glycosides) […]

[2] = Thermal stability of aqueous solution kept at 50° C., HPLC; assay type: physicochemical; settings: 0.5% (w/v) aqueous solution, 50° C. for 90 days
Protocol: A 0.5% (w/v) aqueous solution of pyridoxine 3-β-D-glucoside (pH 6.7) in a volume of 0.3 ml was sealed in a 1-ml volume glass ampoule, and kept at 50° C. under light shielding. The sample was warmed for 90 days, and analyzed during the warming by HPLC (analysis conditions were the same as those applied in Test Example 1) to measure a pyridoxine 3-β-D-glucoside content. A solution of pyridoxine hydrochloride of the same concentration (adjusted to pH 6.7) was treated in the same manner, and the results were compared.
Aqueous solutions (0.5% (w/v)) of pyridoxine 3-β-D-glucoside hydrochloride, pyridoxal 3-β-D-glucoside, pyridoxamine 3-β-D-glucoside, pyridoxine 3-β-D-galactoside, pyridoxine hydrochloride, pyridoxal hydrochloride, and pyridoxamine hydrochloride (adjusted to pH 6.3 to 7.2 with HCl or NaOH) were each sealed in a volume of 0.3 ml in a 1-ml volume glass ampoule, […] in the same manner as in Test Example 2.
0.5% (w/v) Aqueous solutions of pyridoxine 3,4′-cyclic sodium phosphate and pyridoxine hydrochloride (adjusted to pH 6.5 to 6.8) were each sealed in a volume of 0.3 ml in a 1-ml volume glass ampoule, and warming at 50° C. and HPLC analysis were performed in the same manner as in Test Example 2.

Cc1ncc(CO)c(CO)c1O.Cl [pyridoxine hydrochloride]
coloring of the aqueous solution after the light irradiation [1]: colored in pale yellow | coloring of the aqueous solution after the warming [2]: colored in yellow
